Source: patent US7601716B2, “Pyridopyrazines and derivatives thereof as ALK and c-Met inhibitors” (Cephalon, Inc., priority 2006, dated 2009)
Structures can show the parent of a compound that is named as a salt.

Assays:
[1] = target: baculovirus-expressed ALK (Homo sapiens, UniProt Q9UM73); assay: ALK Kinase Assay (ELISA/TRF, PLC-γ substrate); assay type: biochemical; conditions: read-out: ALK Kinase Inhibition (IC50); further: 1 µM ATP (Km level)
Procedure, shortened: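 Plates coated with GST-PLC-γ substrate (10 µg/mL in TBS), then reaction started with 30 ng/ml baculovirus-expressed ALK, 15 min at 37 °C. Phosphotyrosine detected by Eu-labeled PT66 antibody and time-resolved fluorescence. IC50 from variable-slope sigmoidal fit of percent inhibition versus log concentration.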

[2] = target: T1, c-Met (cytoplasmic domain) (Homo sapiens, UniProt P08581); assay: c-Met Kinase Assay (ELISA/TRF, PLC-γ substrate); assay type: biochemical; conditions: 3 μM ATP (Km level); read-out: c-Met Kinase Inhibition (IC50)
T1 construct: Reactions were initiated with 30 ng/mL c-Met (cytoplasmic domain, Invitrogen Corporation #PV3143); purchased Invitrogen Corporation PV3143
Procedure, shortened: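 c-Met cytoplasmic domain (30 ng/mL) phosphorylates plate-coated GST–PLC-γ for 15 min at 37 °C. Phosphotyrosine detected with Eu-labeled PT66 antibody by time-resolved fluorescence. IC50 from variable-slope sigmoidal fit of % inhibition vs log concentration.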

T1 sequence (P08581 956-1390 limits assumed): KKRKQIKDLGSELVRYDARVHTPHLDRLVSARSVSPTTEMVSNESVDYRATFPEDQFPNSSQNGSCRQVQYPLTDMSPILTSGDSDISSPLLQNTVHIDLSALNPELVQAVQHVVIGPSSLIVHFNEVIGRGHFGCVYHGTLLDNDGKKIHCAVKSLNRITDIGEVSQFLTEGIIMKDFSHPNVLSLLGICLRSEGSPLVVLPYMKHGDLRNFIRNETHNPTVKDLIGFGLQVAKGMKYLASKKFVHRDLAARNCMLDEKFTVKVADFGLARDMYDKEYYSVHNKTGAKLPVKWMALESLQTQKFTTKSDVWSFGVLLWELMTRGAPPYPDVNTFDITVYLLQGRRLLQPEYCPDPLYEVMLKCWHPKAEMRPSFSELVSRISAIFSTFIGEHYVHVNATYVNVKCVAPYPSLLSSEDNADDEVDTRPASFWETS
Chain of baculovirus-expressed ALK (Q9UM73 19-1620): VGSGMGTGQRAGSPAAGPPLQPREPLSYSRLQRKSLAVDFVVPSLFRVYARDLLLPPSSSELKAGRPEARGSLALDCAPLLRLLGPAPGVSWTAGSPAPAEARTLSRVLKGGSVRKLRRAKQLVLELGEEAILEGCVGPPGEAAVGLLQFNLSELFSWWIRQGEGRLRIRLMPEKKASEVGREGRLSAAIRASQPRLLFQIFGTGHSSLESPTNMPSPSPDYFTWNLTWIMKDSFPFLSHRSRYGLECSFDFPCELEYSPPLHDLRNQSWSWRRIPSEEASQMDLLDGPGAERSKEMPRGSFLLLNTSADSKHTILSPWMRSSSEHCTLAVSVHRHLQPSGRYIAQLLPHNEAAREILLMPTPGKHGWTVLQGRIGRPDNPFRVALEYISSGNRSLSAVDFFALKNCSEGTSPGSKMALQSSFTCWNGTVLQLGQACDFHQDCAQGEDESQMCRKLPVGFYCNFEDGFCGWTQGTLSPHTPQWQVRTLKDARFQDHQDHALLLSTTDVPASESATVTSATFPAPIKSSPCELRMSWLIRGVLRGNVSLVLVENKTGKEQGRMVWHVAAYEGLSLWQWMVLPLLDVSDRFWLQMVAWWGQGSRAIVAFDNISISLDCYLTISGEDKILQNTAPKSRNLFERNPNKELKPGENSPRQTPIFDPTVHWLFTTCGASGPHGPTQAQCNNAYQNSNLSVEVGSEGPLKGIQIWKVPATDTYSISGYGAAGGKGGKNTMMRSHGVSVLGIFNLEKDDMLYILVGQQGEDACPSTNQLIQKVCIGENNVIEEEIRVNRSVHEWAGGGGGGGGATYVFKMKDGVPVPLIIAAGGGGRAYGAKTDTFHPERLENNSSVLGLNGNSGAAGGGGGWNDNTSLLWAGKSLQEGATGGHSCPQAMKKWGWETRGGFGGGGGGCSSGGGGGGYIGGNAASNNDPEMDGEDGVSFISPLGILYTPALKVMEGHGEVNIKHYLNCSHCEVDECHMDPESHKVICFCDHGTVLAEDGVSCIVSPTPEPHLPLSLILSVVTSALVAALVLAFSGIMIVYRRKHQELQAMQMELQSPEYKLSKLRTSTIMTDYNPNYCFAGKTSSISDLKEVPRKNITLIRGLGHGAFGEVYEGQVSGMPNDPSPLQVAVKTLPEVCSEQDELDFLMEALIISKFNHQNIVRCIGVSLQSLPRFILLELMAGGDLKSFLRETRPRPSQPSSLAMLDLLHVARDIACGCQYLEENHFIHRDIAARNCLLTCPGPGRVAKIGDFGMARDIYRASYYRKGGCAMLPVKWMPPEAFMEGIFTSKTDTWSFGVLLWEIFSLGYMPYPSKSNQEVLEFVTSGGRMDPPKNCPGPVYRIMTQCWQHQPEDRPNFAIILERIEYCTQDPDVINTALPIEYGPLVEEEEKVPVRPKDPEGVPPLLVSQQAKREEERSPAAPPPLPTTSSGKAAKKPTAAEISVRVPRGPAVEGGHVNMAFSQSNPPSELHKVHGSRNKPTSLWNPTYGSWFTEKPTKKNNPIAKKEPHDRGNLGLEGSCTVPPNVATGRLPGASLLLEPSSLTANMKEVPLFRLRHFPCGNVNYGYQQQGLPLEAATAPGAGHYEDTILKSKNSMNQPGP

Row | Compound | IC50 [1] [µM] | IC50 [2] [µM]
1 | O=C(c1cnc2c(c1)N(Cc1cc(Cl)ccc1Cl)CCN2)N1CCN(c2ccccc2C(F)(F)F)CC1 [Example 257, [1-(2,5-Dichlorobenzyl)-1,2,3,4-tetrahydropyrido[2,3-b]pyrazin-7-yl]-[4-(2-(trifluoromethyl)phenyl)piperazin-1-yl]methanone] | 10 to 100 | > 100
2 | CN1CCN(c2cc(-c3cnc4c(c3)C(Oc3cccc(Cl)c3)CCN4)ccn2)CC1 (centres unmarked) [Example 278, 4-(3-Chlorophenoxy)-6-[2-(4-methylpiperazin-1-yl)pyridin-4-yl]-1,2,3,4-tetrahydro-[1,8]naphthyridine] | 1 to 10 | 1 to 10
3 | CC(c1cc(F)c(F)cc1F)N1CCNc2ncc(-c3ccc(C(=O)N4CCC[C@H]4CN4CCCC4)cc3)cc21 (stereo partly drawn) [Example 148, S-{2-[(pyrrolidin-1-yl)methyl]pyrrolidin-1-yl}-(4-{1-[1-(2,4,5-trifluorophenyl)ethyl]-1,2,3,4-tetrahydropyrido[2,3-b]pyrazin-7-yl}phenyl)methanone, trifluoroacetic acid salt] | 0.1 to 1 | 10 to 100
4 | O=C1CNc2ncc(-c3ccc(C(=O)N4CCC[C@H]4CN4CCCC4)cc3)cc2N1Cc1ccccc1 [Example 13, S-1-Benzyl-7-[4-(2-[(pyrrolidin-1-yl)methyl]pyrrolidine-1-carbonyl)phenyl]-3,4-dihydro-1H-pyrido[2,3-b]pyrazin-2-one, trifluoroacetic acid salt] | 10 to 100 | > 100
5 | O=C(NCc1cccc2ccccc12)c1cnc2c(c1)N(Cc1cc(Cl)ccc1Cl)CCN2 [Example 244, 1-(2,5-Dichlorobenzyl)-1,2,3,4-tetrahydropyrido[2,3-b]pyrazine-7-carboxylic acid (naphthalen-1-yl-methyl)amide] | 1 to 10 | > 100
6 | CCNC(=O)c1cccc(-c2cnc3c(c2)N(Cc2ccccc2)C(=O)CN3)c1 [Example 22, 3-(1-Benzyl-2-oxo-1,2,3,4-tetrahydropyrido[2,3-b]pyrazin-7-yl)-N-ethyl-benzamide] | > 100 | > 100
7 | CC(=O)N1CCN(C(=O)c2cnc3c(c2)N(Cc2cc(Cl)ccc2Cl)CCN3)CC1 [Example 227, 1-{4-[1-(2,5-Dichlorobenzyl)-1,2,3,4-tetrahydropyrido[2,3-b]pyrazine-7-carbonyl]piperazin-1-yl}ethanone] | 10 to 100 | 10 to 100
8 | O=C(c1cnc2c(c1)N(Cc1cc(Cl)ccc1Cl)CCN2)N1CCN(c2ccccc2Cl)CC1 [Example 261, [4-(2-Chlorophenyl)piperazin-1-yl]-[1-(2,5-dichlorobenzyl)-1,2,3,4-tetrahydropyrido[2,3-b]pyrazin-7-yl]methanone] | 1 to 10 | > 100
9 | O=C(NCC(c1ccccc1)c1ccccc1)c1cnc2c(c1)N(Cc1cc(Cl)ccc1Cl)CCN2 [Example 226, 1-(2,5-Dichlorobenzyl)-1,2,3,4-tetrahydropyrido[2,3-b]pyrazine-7-carboxylic acid (2,2-diphenylethyl)amide] | 10 to 100 | 10 to 100
10 | O=C(c1ccc(-c2cnc3c(c2)N(Cc2cc(F)ccc2F)CCN3)cc1)N1CCOCC1 [Example 68, {4-[1-(2,5-Difluorobenzyl)-1,2,3,4-tetrahydropyrido[2,3-b]pyrazin-7-yl]phenyl}-morpholin-4-yl-methanone] | 0.1 to 1 | 1 to 10
11 | O=C(c1cc(F)ccc1F)N1CCNc2ncc(-c3ccc(C(=O)N4CCC[C@H]4CN4CCCC4)cc3)cc21 [Example 89, (2,5-Difluorophenyl)-{7-[4-((S)-2-[(pyrrolidin-1-yl)methyl]pyrrolidine-1-carbonyl)phenyl]-3,4-dihydro-2H-pyrido[2,3-b]pyrazin-1-yl}-methanone] | 10 to 100 | 10 to 100
12 | O=C(NCc1ccc(-c2ccccc2)cc1)c1cnc2c(c1)N(Cc1cc(Cl)ccc1Cl)CCN2 [Example 249, 1-(2,5-Dichlorobenzyl)-1,2,3,4-tetrahydropyrido[2,3-b]pyrazine-7-carboxylic acid (biphenyl-4-ylmethyl)amide] | 10 to 100 | > 100
13 | CN1CCN(C(=O)c2ccc(-c3cnc4c(c3)C(Oc3cccc(Cl)c3)CCN4)cc2)CC1 (centres unmarked) [Example 274, {4-[5-(3-Chlorophenoxy)-5,6,7,8-tetrahydro-[1,8]naphthyridin-3-yl]-phenyl}-(4-methylpiperazin-1-yl)methanone] | 1 to 10 | 1 to 10
14 | O=C(O)c1cccc(-c2cnc3c(c2)N(Cc2cc(Cl)ccc2C(F)(F)F)CCN3)c1 [Example 196, 3-{1-[5-Chloro-2-(trifluoromethyl)benzyl]-1,2,3,4-tetrahydropyrido[2,3-b]pyrazin-7-yl}benzoic acid] | 1 to 10 | 10 to 100
15 | O=C(NCc1ccccc1)c1cnc2c(c1)N(Cc1cc(Cl)ccc1Cl)CCN2 [Example 246, 1-(2,5-Dichlorobenzyl)-1,2,3,4-tetrahydropyrido[2,3-b]pyrazine-7-carboxylic acid benzylamide] | 0.1 to 1 | > 100
16 | CC(c1cc(F)c(F)cc1F)N1C(=O)CNc2ncc(I)cc21 (centres unmarked) [Example 145, 7-Iodo-1-[1-(2,4,5-trifluorophenyl)ethyl]-3,4-dihydro-1H-pyrido[2,3-b]pyrazin-2-one] | > 100 | > 100
17 | O=C(c1ccccc1)N1CCNc2ncc(-c3ccc(NS(=O)(=O)CCN4CCCC4)cc3)cc21 [Example 46, 2-Pyrrolidin-1-yl-ethanesulfonic acid[4-(1-benzoyl-1,2,3,4-tetrahydropyrido[2,3-b]pyrazin-7-yl)phenyl]amide] | 10 to 100 | 10 to 100
18 | O=C(c1ccc(-c2cnc3c(c2)N(Cc2ccccc2)C(=O)CN3)cc1)N1CCC(N2CCCC2)CC1 [Example 26, 1-Benzyl-7-[4-(4-(pyrrolidin-1-yl)piperidine-1-carbonyl)phenyl]-3,4-dihydro-1H-pyrido[2,3-b]pyrazin-2-one, trifluoroacetic acid salt] | 1 to 10 | 10 to 100
19 | O=C(c1cnc2c(c1)N(Cc1cc(Cl)ccc1Cl)CCN2)N1CCC[C@H]1CN1CCCC1 [Example 238, [1-(2,5-Dichlorobenzyl)-1,2,3,4-tetrahydropyrido[2,3-b]pyrazin-7-yl]-((S)-2-pyrrolidin-1-ylmethyl-pyrrolidin-1-yl)methanone] | 1 to 10 | > 100
20 | O=C(c1ccccc1)N1CCN(C(=O)c2cnc3c(c2)N(Cc2cc(Cl)ccc2Cl)CCN3)CC1 [Example 219, (4-Benzoylpiperazin-1-yl)-[1-(2,5-dichlorobenzyl)-1,2,3,4-tetrahydropyrido[2,3-b]pyrazin-7-yl]methanone] | 1 to 10 | 10 to 100
21 | CC(c1cc(F)c(F)cc1F)N1C(=O)CNc2ncc(-c3ccc(C(=O)N4CCN(C)CC4)cc3)cc21 (centres unmarked) [Example 146, 7-[4-(4-Methylpiperazine-1-carbonyl)phenyl]-1-[1-(2,4,5-trifluorophenyl)ethyl]-3,4-dihydro-1H-pyrido[2,3-b]pyrazin-2-one, trifluoroacetic acid salt] | > 100 | 10 to 100
22 | O=C(c1cnc2c(c1)N(Cc1cc(Cl)ccc1Cl)CCN2)N1CCN(c2cccc(C(F)(F)F)c2)CC1 [Example 211, [1-(2,5-Dichlorobenzyl)-1,2,3,4-tetrahydropyrido[2,3-b]pyrazin-7-yl]-{4-[3-(trifluoromethyl)phenyl]piperazin-1-yl}methanone] | 10 to 100 | 10 to 100
